From patent US10139394B2, “Method for controlling cancer metastasis or cancer cell migration by modulating the cellular level of lysyl tRNA synthetase” (Medicinal Bioconvergence Research Center, priority 2008, dated 2018)

Assays:
[1] = test system: phosphorylation of KRS; test: Laminin-induced phosphorylation of Myc-KRS, immunoprecipitation and immunoblot with anti-p-Thr, -Ser, -Tyr antibodies; format: cell-based, human; details: Myc-KRS transfected A549 cells; laminin treatment; FIG. 10
Method: (§1) In FIG. 7, A549 cells were treated with laminin (10 ug/ml) and the level of 67LR, 37LRP and KRS was determined by Western blotting at the indicated times. Hsp90 and Cadherin were used as markers for cytoplasm and membrane, respectively. In FIG. 8, A549 cells untreated or treated with laminin for 1 h were subjected to immunofluorescence staining with anti-67LR (MLuC5, Santacruz, sc-59732) (red) and -KRS antibodies (green). In FIG. 9, A549 cells were treated with U73122 (U), staurosporin (ST) and LY294002 (LY) that inhibit PLC-gamma, PKC and PI3K, respectively, for 3 hr, then with laminin for 1 hr and checked how these kinase inhibitors would affect the membrane and cytoplasmic level of 67LR and KRS. In FIG. 10, A549 cells were transfected with Myc-KRS and incubated for 24 h. The cells were treated with the indicated chemicals and then with laminin as above. Myc-KRS was immunoprecipitated, and immunoblotted with anti-p-Thr, -Ser, and -Tyr antibodies. In FIG. 11, A549 cells were transfected with Myc-KRS and cultivated for 24 hr. The transfectants were pre-treated with LY294002 for 3 hr and then treated with laminin for 1 h. Myc-KRS was immunoprecipitated and co-precipitation of 67LR was determined by Western blotting. […] EPRS (glutamyl-prolyl-tRNA synthetase) was immunoprecipitated with its specific antibody (AbCam), and co-immunoprecipitation of KRS was determined by Western blotting (upper). […]

[2] = test system: membrane translocation of KRS; test: Laminin-dependent membrane translocation of KRS and 67LR, cell fractionation and Western blotting; format: cell-based; details: A549 cells; laminin 10 ug/ml, time course; FIG. 7
Method: In FIG. 7, A549 cells were treated with laminin (10 ug/ml) and the level of 67LR, 37LRP and KRS was determined by Western blotting at the indicated times. Hsp90 and Cadherin were used as markers for cytoplasm and membrane, respectively. In FIG. 8, A549 cells untreated or treated with laminin for 1 h were subjected to immunofluorescence staining with anti-67LR (MLuC5, Santacruz, sc-59732) (red) and -KRS antibodies (green). In FIG. 9, A549 cells were treated with U73122 (U), staurosporin (ST) and LY294002 (LY) that inhibit PLC-gamma, PKC and PI3K, respectively, for 3 hr, then with laminin for 1 hr and checked how these kinase inhibitors would affect the membrane and cytoplasmic level of 67LR and KRS. In FIG. 10, A549 cells were transfected with Myc-KRS and incubated for 24 h. The cells were treated with the indicated chemicals and then with laminin as above. Myc-KRS was immunoprecipitated, and immunoblotted with anti-p-Thr, -Ser, and -Tyr antibodies. In FIG. 11, A549 cells were transfected with Myc-KRS and cultivated for 24 hr. The transfectants were pre-treated with LY294002 for 3 hr and then treated with laminin for 1 h. Myc-KRS was immunoprecipitated and co-precipitation of 67LR was determined by Western blotting. IgG was used as a control for immunoprecipitation. In FIG. 12, A549 cells were cultivated in the absence and presence of laminin and LY294002 as indicated. EPRS (glutamyl-prolyl-tRNA synthetase) was immunoprecipitated with its specific antibody (AbCam), and co-immunoprecipitation of KRS was determined by Western blotting (upper). The immune-depleted supernatant (ID) were subjected to Western blottingting with anti-KRS and -EPRS antibodies.
The cells were lysed with 20 mM Tris-HCl (pH 7.4) buffer containing 150 mM NaCl, 0.5% TritonX-100, 0.1% SDS, and protease inhibitor. The protein extracts were incubated with normal IgG and protein G agarose for 2 hr and then centrifuged to remove nonspecific IgG binding proteins. […]

[3] = test system: MMP-2; test: MMP-2 zymography; format: cell-based; details: A549 cells; laminin 10 μg/ml 24 hr; FIG. 19
Method: In FIG. 18, A549 cells were transfected with the indicated plasmids, incubated in the absence and presence of laminin and their effect on cell migration was determined by measuring the migrated cells in transwell chamber as described. The numbers of the cells passed through the membrane were counted and shown in each panel. The experiments were performed three times. In FIG. 19, the cells treated as above were used to determine MMP-2 activity and level by zymography and Western blotting, respectively. In FIG. 20, Breast carcinoma 4T-1 cells were transfected with the indicated siRNA and subcutaneously injected to the back of Balb/C mice. After 21 days, mouse lungs were isolated and tumor nodules over 1 mm in diameter were counted. In FIG. 21, two different 4T-1 cells stably expressing exogenously introduced KRS (KRS-1 and -2) were also inoculated as above and the tumor nodules were counted 30 days after injection. 4T-1 cells with empty vector were used as control. In FIG. 22, expression levels of KRS and 67LR in lung (upper) and breast (lower) cancer tissues were compared by immunohistochemical staining with their respective antibodies. 39 lung and 40 breast cancer tissues were subjected to immunohistochemical staining with anti-KRS and anti-67LR antibodies and their expression levels were compared with those in normal tissues (9 samples for each tissue). […]

[4] = test system: KRS and EPRS; test: Co-immunoprecipitation of KRS with EPRS (multi-ARS complex); format: cell-based; details: A549 cells; absence of LY compound; FIG. 12
Method: as §1

laminin: laminin (Engelbreth-Holm-Swarm murine sarcoma) from Sigma
phosphorylated KRS at threonine and serine [1]: increased
membrane level of KRS and 67LR [2]: gradually increased
MMP-2 activity [3]: enhanced
association of KRS with EPRS [4]: decreased
